The source of these data is ChEMBL document CHEMBL1201862, “PubChem BioAssay data set” (2004).

Common to all, as to experiment: inhibition of tumour cell growth, NCI panel, 48 h
Test [1] deals with DMS-114.
In test [2] the test system is DMS-273.
Test [3] has as its system LXFL 529.
Test [4] deals with M19-MEL.
Test [5] has as its system RXF 631.
In test [6] the test system is SNB-78.
Test [7] relates to XF498.
For test [8], the system named is HOP-18.
The subject of test [9] is KM-20L2.

Each structure is given as a SMILES string.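 All cell lines were grown in 96-well plates and treated with compound for 48 hours. GI50 marks 50% less growth.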 Activity calls are given as the source filed them. No stated cut-off is given here; in the data, active = GI50 up to about 1.1 µM and inactive = higher.

As for `O=C1c2c(nc3ccccc3c2-c2ccccc2)CN1Nc1ccccn1`, the GI50 is 27.5 µM (inactive) in test [1]; > 89.9 µM (inactive) in test [2]; 51.9 µM (inactive) in test [3]; > 100 µM (inactive) in test [4]; 15.8 µM (inactive) in test [5]; 11.5 µM (inactive) in test [6]. In addition, the GI50 in test [7] is > 100 µM (inactive).

In the case of `COc1cc(O)c2c(c1O)C(=O)c1cc(C)ncc1C2=O`, the GI50 in [1] is 18.9 µM (inactive); in [8], > 50 µM (inactive); in [9] it was 17.2 µM (inactive); in [3], 18.6 µM (inactive); in [4], 7.91 µM (inactive); in test [6], 37.8 µM (inactive). In test [7], the GI50 was 20.6 µM (inactive).

For `C[N+](C)(C)CC1CCCC/C1=N\O` (configuration not stated), the GI50 in test [1], in test [2], in [8], in test [9], in test [3] and in test [5] was > 100 µM (inactive) in each case. The GI50 in [6] is > 100 µM (inactive).

Take `O=C(O)C1OC(Oc2cc(O)c3c(=O)cc(-c4ccc(O)cc4)oc3c2)C(O)C(O)C1O` (configuration not stated): the GI50 in test [1], in test [2], in test [9], in test [3], in test [4] and in test [6] was > 100 µM (inactive) in each case. Besides, the GI50 in test [7] is 33.6 µM (inactive).

On to `Cc1cc(Cl)ccc1NC1=NC(=O)C(CC(=O)Nc2ccc(Cl)cc2Cl)S1` (configuration not stated), for which the GI50 in [1], in test [2], in test [9], in [3], in test [4] and in test [5] was > 100 µM (inactive) in each case. In addition, the GI50 was > 100 µM (inactive) in test [6] and 38.1 µM (inactive) in test [7].

Consider `O=c1cc(-c2ccccc2)[nH]c2cc(Cl)cc(Cl)c12`, for which the GI50 is 26.4 µM (inactive) in test [1]; 12.3 µM (inactive) in test [2]; 20.8 µM (inactive) in test [8]; 67.8 µM (inactive) in test [3]; 35.5 µM (inactive) in [4].

As to `CN1CC[C@@H](c2c(O)cc(O)c3c(=O)cc(-c4ccccc4Cl)oc23)[C@@H](O)C1`, the GI50 in test [1] is 0.113 µM (active); in test [2], 0.109 µM (active); in test [8], 0.0562 µM (active); in test [9] it was 0.174 µM (active); in test [3], 0.124 µM (active); in [6], 0.213 µM (active). The GI50 in test [7] was 0.149 µM (active).

Turning to `CN(C)CC(/C(Cc1ccccc1)=N\NC(=S)NN)c1ccccc1` (configuration not stated), the GI50 in test [1], in [2], in test [9], in test [3], in test [4] and in [6] was > 100 µM (inactive) each time. Also, in [7], the GI50 is > 100 µM (inactive).

In the case of `Nc1ccc2c(c1)C(=O)N(OS(=O)(=O)c1ccccc1)C2=O`, the GI50 in test [1] is > 100 µM (inactive); in test [2], > 100 µM (inactive); in [8], > 100 µM (inactive); in [9], > 100 µM (inactive); in test [3] it was 82 µM (inactive); in test [4], > 100 µM (inactive). Further, the GI50 in test [5], in test [6] and in test [7] was > 100 µM (inactive) each time.

For the compound `O=[N+]([O-])c1cc(-c2nnc(S)[nH]2)ccc1O`, the GI50 in test [1] was 32.4 µM (inactive); in test [2], 67.6 µM (inactive); in test [9] it was > 100 µM (inactive); in test [3], > 100 µM (inactive); in test [4] it was 86.3 µM (inactive); in [5], > 100 µM (inactive). Moreover, the GI50 in [6] was > 100 µM (inactive).

For the compound `O=C1C2=C(c3ccccc31)C(c1ccccc1)NC(S)=N2` (configuration not stated), the GI50 in [1] is 30.7 µM (inactive); in [2] it was 26.9 µM (inactive); in test [9], 42 µM (inactive); in test [3] it was 26.2 µM (inactive); in test [4], 67.9 µM (inactive); in test [5], 43.2 µM (inactive). Besides, the GI50 in [7] was 56 µM (inactive).

Consider `COC(=O)C1=CCON(c2ccccc2)C1c1ccccc1` (configuration not stated), for which the GI50 in [1] was 48.3 µM (inactive); in test [2], 56.5 µM (inactive); in test [8], > 100 µM (inactive); in test [9] it was 69.8 µM (inactive); in test [3] it was 34.7 µM (inactive); in test [4] it was 62.8 µM (inactive). For the same compound, the GI50 in test [7] is 52 µM (inactive).

As for `N#CNc1nc(C(=O)Nc2ccc(Cl)cc2)cc(-c2ccccc2)n1`, the GI50 in [1], in test [2], in [8], in test [9], in [3] and in test [4] was > 100 µM (inactive) in each case. In addition, the GI50 in test [5], in test [6] and in [7] was > 100 µM (inactive) throughout.

Consider `CC1CC(=O)C(CC(=O)O)[C@H]1C(C(=O)C(=O)Nc1cc(Cl)ccc1Cl)[N+](=O)[O-]` (some centres not stated), for which the GI50 in test [1], in test [8], in test [9], in [4] and in test [7] was > 100 µM (inactive) in each case.

With `CN(C)CCCNc1ccnc2cccc([N+](=O)[O-])c12`, the results for the GI50 in test [9] and in [6] were 11.5 µM (inactive) and 12.9 µM (inactive), respectively.

As to `O=C(/C=C/c1c(O)ccc2ccccc12)c1cccc(O)c1`, the GI50 in [1] is 41.3 µM (inactive); in [2], > 63.5 µM (inactive); in test [8], 23 µM (inactive); in test [9], > 100 µM (inactive); in [3], > 83.6 µM (inactive); in test [4], 17.5 µM (inactive). Further, the GI50 in test [6] and in test [7] was > 100 µM (inactive) throughout.

`C/C=C/C=C/C=C/C=C/C(=O)O`: the GI50 in test [1], in test [2], in test [8], in [9], in [3] and in test [5] was > 100 µM (inactive) throughout. In [6], the GI50 is > 100 µM (inactive).

For the compound `COc1cc(NCC(C#N)C#N)ccc1/N=N/c1ccc(Cl)cc1`, the GI50 in [1] was 18.5 µM (inactive); in test [2] it was 21.5 µM (inactive); in test [8], 21 µM (inactive); in test [9], 15.2 µM (inactive); in test [3] it was 18.3 µM (inactive); in [4], 19.3 µM (inactive). Also, the GI50 in [5] is 26.3 µM (inactive); in test [6] it was 36.7 µM (inactive).

For the compound `CC(C)C1CNC2N1C(=O)C2(C)OCc1ccccc1` (configuration not stated), the GI50 in [1], in [2], in test [9], in [3] and in test [4] was > 100 µM (inactive) throughout.

`Cc1ccc(NC(=O)CC/C(CC(=O)c2ccc(F)cc2)=N\NC(=O)C(=O)NN)cc1C`: the GI50 in test [1], in test [2], in test [8], in test [9], in [3] and in test [4] was > 100 µM (inactive) throughout. Also, the GI50 in test [5] and in [6] was > 100 µM (inactive) each time.

Take `COc1cc2c(cc1OC)C(Cl)C(c1ccc(F)cc1)=C2Cl` (configuration not stated): the GI50 in test [1] is 13.2 µM (inactive); in test [2], 16.4 µM (inactive); in [8] it was 15.2 µM (inactive); in test [9], 14.8 µM (inactive); in test [3], 11.7 µM (inactive); in test [4], 16.8 µM (inactive). The GI50 in test [6] is 15.4 µM (inactive).

As to `O=C1CCC2(c3ccccc3)OCC([C@@H](O)c3ccccc3)N12` (some centres not stated), the GI50 in test [1], in [2], in [8], in [9], in test [4] and in [6] was > 100 µM (inactive) each time. In test [7], the GI50 was > 100 µM (inactive).

In the case of `Clc1ccc2[nH]c(CCSCCc3nc4ccc(Cl)cc4[nH]3)nc2c1`, the GI50 in test [2] was 13.4 µM (inactive); in [8], 22.3 µM (inactive); in [3], 6.18 µM (inactive); in test [4], 14.4 µM (inactive); in test [5] it was 6.89 µM (inactive); in [7], 14.2 µM (inactive).

On to `COC(=O)C1CC(C(=O)OC)c2nc3cc(C)c(C)cc3nc21` (configuration not stated), for which the GI50 in test [1] is > 100 µM (inactive); in test [2] it was > 100 µM (inactive); in test [8], 41.7 µM (inactive); in [9], > 100 µM (inactive); in test [3], > 100 µM (inactive); in [4] it was > 100 µM (inactive). Moreover, the GI50 in [5], in [6] and in [7] was > 100 µM (inactive) in each case.

For the compound `Nc1ccc(O)c2c1C(=O)c1c(N)ccc(O)c1C2=O`, the GI50 in [1], in [2], in test [3], in test [4], in [6] and in test [7] was > 100 µM (inactive) each time.
